One compound from patent publication US20070264679A1, “Method for analyzing the activity of lipoxygenase using a water-soluble substrate” (Chungnam National University Industry Collaboration …, priority 2006, published 2007) can be followed below.

For one assay, the target named is T1, leukocyte LOX (Sus scrofa, UniProt P16469).
T1 construct: purchased Cayman Chemical Co. (Ann Arbor, Mich., USA)
T1 sequence (P16469 1-663): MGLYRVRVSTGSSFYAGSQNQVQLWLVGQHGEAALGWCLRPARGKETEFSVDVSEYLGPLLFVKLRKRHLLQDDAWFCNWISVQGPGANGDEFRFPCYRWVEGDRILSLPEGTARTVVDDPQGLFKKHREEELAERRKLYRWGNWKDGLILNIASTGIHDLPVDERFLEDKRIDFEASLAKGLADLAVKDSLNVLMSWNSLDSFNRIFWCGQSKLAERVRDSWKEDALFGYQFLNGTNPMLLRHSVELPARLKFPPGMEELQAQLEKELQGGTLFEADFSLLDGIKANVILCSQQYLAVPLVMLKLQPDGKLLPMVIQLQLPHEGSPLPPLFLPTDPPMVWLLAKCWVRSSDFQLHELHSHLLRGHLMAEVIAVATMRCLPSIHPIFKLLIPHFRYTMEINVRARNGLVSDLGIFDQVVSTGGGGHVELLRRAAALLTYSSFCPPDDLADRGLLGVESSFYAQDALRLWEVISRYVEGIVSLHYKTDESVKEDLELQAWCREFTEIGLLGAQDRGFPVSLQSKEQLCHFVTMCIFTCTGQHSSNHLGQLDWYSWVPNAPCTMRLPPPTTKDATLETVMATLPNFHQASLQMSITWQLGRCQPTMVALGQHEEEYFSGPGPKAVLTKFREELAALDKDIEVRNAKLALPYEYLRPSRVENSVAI
In words: Position specificity of leukocyte LOX in oxygenation of arachidonoyl-lysoPC (SP-HPLC of HETE). In kind it is biochemical, porcine. The note with it: predominant product 12-HETE. Here is the method: After 30 min incubation, the reaction was stopped by the addition of sodium borohydride to reduce hydroperoxy compounds to their corresponding alcohols, which were subjected to alkaline hydrolysis. After 30 min incubation at 60° C. under N2, the mixture was subjected to lipid extraction as described previously (Leon et al, J. Agric. Food. Chem. 52 (2004) 1207-1211). Finally, the lipid extract was analyzed by SP-HPLC system equipped with silica gel column (4 μm, 150×3.9 mm, Waters, USA), which was eluted (1 ml/min) with n-hexane/isopropyl alcohol/acetic acid (100:1:0.05). The identification of hydrolysis products was carried out in comparison with each standard compound, 15-hydroxyeicosatetraenoic acid (HETE) or 12-HETE.
To establish the position of oxygenation of arachidonoyl chain in arachidonoyl-lysoPC, hydroperoxyeicosatetraenoyl-lysoPC was subjected to NaBH4 reduction, followed by saponification in alkaline medium, to afford hydroxyeicosatetraenoic acid, which was further purified by SP-HPLC.

Assay [1] addresses T2, Leukocyte 12-lipoxygenase (leukocyte LOX) (Sus scrofa, UniProt P16469).
T2 construct: purchased Cayman Chemical Co. (Ann Arbor, Mich., USA)
T2 sequence (P16469 1-663): T1 sequence (P16469 1-663)
In words: Kinetics of oxygenation of arachidonic acid or arachidonoyl-lysophospholipids by leukocyte LOX. In kind it is biochemical, porcine. The note with it: for Vm: 0.03% Tween 20. Here is the method:
(§1) Activities of various LOXs were monitored by measuring the increase in absorbance at 234 nm due to the formation of hydroperoxide (ε234=25,000 M^−1 cm^−1) at 25° C. as described before (Smith et al, J. Biol. Chem. 247 (1972) 1038-1047). One unit is defined as the amount of LOXs that can produce one nanomole of conjugated diene per min. The reaction mixture (500 μl) included reticulocyte LOX (2 units/ml) in 50 mM phosphate buffer (pH 7.4), porcine leukocyte LOX (1 unit/ml) in 100 mM phosphate buffer (pH 7.5) containing 5 mM EDTA and 0.03% Tween 20, or soybean LOX-1 (2.5 units/ml) in 50 mM borax buffer (pH 9.0) at 25° C. The reactions were started by including each substrate (100 μM) into the above reaction mixture.
(§2) Reticulocyte LOX (2 units/ml), leukocyte LOX (1 units/ml) or soybean LOX-1 (2.5 units/ml) was incubated with each arachidonoyl derivative substrate of various concentrations as described above. The values of kinetic parameters were obtained according to Lineweaver Burke plot analyses as described before (Barroso et al, J. Chromatogr. B. Analyt. Technol. Biomed. Life. Sci. 814 (2005) 21-28).

The next assay concerns the target T3, soybean LOX-1 (Glycine max, UniProt P08170).
T3 construct: purchased Sigma-Aldrich Corp (St. Louis, Mo., USA) lipoxidase Type I-B
T3 sequence (P08170 1-839): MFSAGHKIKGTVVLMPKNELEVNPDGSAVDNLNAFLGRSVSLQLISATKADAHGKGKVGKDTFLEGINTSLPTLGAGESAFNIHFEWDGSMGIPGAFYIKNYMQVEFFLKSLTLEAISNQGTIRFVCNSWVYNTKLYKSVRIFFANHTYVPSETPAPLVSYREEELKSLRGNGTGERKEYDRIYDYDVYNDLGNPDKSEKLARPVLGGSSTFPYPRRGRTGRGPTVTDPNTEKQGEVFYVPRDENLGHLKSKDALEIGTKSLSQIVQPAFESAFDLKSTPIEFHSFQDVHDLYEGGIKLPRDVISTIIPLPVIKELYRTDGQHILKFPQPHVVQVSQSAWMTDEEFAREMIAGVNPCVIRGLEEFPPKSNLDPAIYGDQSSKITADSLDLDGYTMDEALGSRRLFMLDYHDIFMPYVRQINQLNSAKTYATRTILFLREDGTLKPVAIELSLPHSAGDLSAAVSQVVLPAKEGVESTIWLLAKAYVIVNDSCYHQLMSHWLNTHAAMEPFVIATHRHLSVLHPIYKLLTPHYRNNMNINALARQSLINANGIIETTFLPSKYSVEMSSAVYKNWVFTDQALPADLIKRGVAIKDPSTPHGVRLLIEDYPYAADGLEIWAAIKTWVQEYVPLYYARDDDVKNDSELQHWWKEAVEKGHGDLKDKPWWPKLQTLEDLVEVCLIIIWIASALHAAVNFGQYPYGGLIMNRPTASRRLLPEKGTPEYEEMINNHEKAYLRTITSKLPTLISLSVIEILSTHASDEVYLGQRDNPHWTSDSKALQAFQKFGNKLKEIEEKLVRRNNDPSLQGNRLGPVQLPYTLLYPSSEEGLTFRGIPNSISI
In words: Kinetics of oxygenation of arachidonic acid or arachidonoyl-lysophospholipids by soybean LOX-1. In kind it is biochemical. The following applies: soybean LOX-1 2.5 units/ml; for Km: 50 mM borax buffer pH 9.0, 25° C.; for Vm: 50 mM borax buffer pH 9.0, unit = one nanomole conjugated diene per min. Here is the method:
as §1, §2

Take `CCCCC/C=C\C/C=C\C/C=C\C/C=C\CCCC(=O)OCC(O)COP(=O)([O-])OCC[N+](C)(C)C` (stereo not drawn) [Arachidonoyl-lysoPC, 1-Arachidonoyl lysophosphatidylcholine]: the “minor product behaving like 15-HETE in leukocyte LOX-catalyzed oxygenation” value at leukocyte LOX is on record as ≤ 5%. Further, the “efficacy as a substrate for leukocyte LOX (Vm/Km) relative to arachidonic acid” value in assay [1] (greater than that of arachidonic acid) is reported as “approximately 10 fold”. In addition, the Vm in assay [1] (leukocyte LOX 1 unit/ml, 100 mM phosphate buffer pH 7.5, 5 mM EDTA) was determined as 199.8 ± 16.7 units/mg; in assay [1] (leukocyte LOX 1 unit/ml, 100 mM phosphate buffer pH 7.5, 5 mM EDTA, listed as arachidonoyl-lysoPC), 199.8 units/mg; on soybean LOX-1 it was 97.0 ± 8.2 units/μg; on soybean LOX-1 (listed as arachidonoyl-lysoPC), 97.0 units/μg. In addition, the Michaelis constant (Km) – broadly, the concentration of substrate that gives half-maximal velocity – in assay [1] (leukocyte LOX 1 unit/ml, 100 mM phosphate buffer pH 7.5, 5 mM EDTA, 0.03% Tween 20, 25° C.) worked out at 2.6 µM; on soybean LOX-1 it was 5.37 ± 1.6 µM; on soybean LOX-1 (listed as arachidonoyl-lysoPC) it was 5.4 µM.
